Columns and labels:
HaCaT cell line = assay: MTT cell viability analysis (cytotoxicity), HaCaT; assay type: cell-based, human; details: 24 hours, FIG. 1
Procedure: (§1) Pachastrissamine's cytotoxicity on a HaCaT cell line and a malignant melanoma cell line was researched through MTT cell viability analysis.
(§2) First, each of a HaCaT cell line (German Cancer Research, obtained from prof. N. Fuseni, Germany), and two kinds of malignant melanoma cell lines, B16F10 (B16) and A375 were inoculated into a DMEM (Dulbecco's Modified Eagle's Medium) culture medium added with 10% FBS (Thermo Fisher Scientific Inc.), 100 unit/ml penicillin, and 100 μg/ml streptomycin, and then cultured in a CO2 incubator (Form a Scientific, Inc.) (37° C., 5%).
(§3) The cultured HaCaT, B16F10, and A375 cells were plated onto a 96-well plate at a concentration of 5×10^4 cells/well, and cultured in a CO2 incubator (37° C., 5%) for 24 hours. The cells in respective wells were treated with pachastrissamine and phytosphingosine at various concentrations of 0, 0.9, 1.8, 3.7, 7.5, 10 μg/ml, and cultured in a CO2 incubator (37° C., 5%) for 24 hours. After the culturing, in a state where the culture medium existed, each well was added with 5 mg/ml MTT reagent at a concentration of 20 μl/[…], and cultured in an incubator for 2 hours. After 2 hours, the culture medium was removed, and each well was added with 150 μl of DMSO (dimethyl sulfoxide). Then, a spectrophotometer was used to measure the absorbance at 540 nm, thereby analyzing the cell viability. Herein, the cell viability was represented as a relative value with respect to 100% of cell viability in a control group not treated with pachastrissamine and phytosphingosine.

[1] = system: malignant melanoma cell line B16F10; assay: MTT cell viability analysis (cytotoxicity), B16F10; assay type: cell-based; details: 24 hours, FIG. 1
Procedure: as §1, §2, §3

[2] = system: malignant melanoma cell line A375; assay: MTT cell viability analysis (cytotoxicity), A375; assay type: cell-based; details: 24 hours, FIG. 1
Procedure: as §1, §2, §3

B16F10 cell line = assay: Cell counting by hemocytometer, trypan blue exclusion, B16F10; assay type: cell-based; details: 24 hours
Procedure: A HaCaT cell line was cultured in the same manner as described in Example 1. The cultured HaCaT cell line was plated onto a 60 mm plate at a concentration of 5×10^4 cells/well, and cultured in a CO2 incubator (37° C., 5%) for 24 hours. The cultured cells in respective plates were treated with pachastrissamine at a concentration of 10 μg/ml, and cultured in a CO2 incubator (37° C., 5%) for 24, 36, and 48 hours, respectively. After the culturing, the cells were washed with PBS, treated with trypsin-EDTA, and completely detached from the plate. Then, a hemocytometer was used to count the cells through trypan blue exclusion.
HaCaT, B16F10 and A375 cell lines were cultured in the same manner as described in Example 1. The cultured HaCaT cell line was plated onto a 60 mm plate at a concentration of 5×10^4 cells/well, and cultured in a CO2 incubator (37° C., 5%) for 24 hours. The cultured respective cells were divided into 4 groups. […] These groups were cultured in a CO2 incubator (37° C., 5%) for 24 hours, and then the number of cells were measured in the same manner as described in Example 2-2.

FoxO3a [3] = assay: Western blotting of FoxO3a protein expression in HaCaT; assay type: cell-based, human
Procedure: A HaCaT cell line was cultured in the same manner as described in Example 1. […] Then, western blotting was carried out by using FoxO3a antibody as a primary antibody.
Then, western blotting was carried out by using FoxO3a antibody as a primary antibody so as to carry out comparative analysis on the level of protein expression.

FoxO3a [4] = assay: Immunocytochemistry of intracellular FoxO3a distribution; assay type: cell-based
Procedure: In order to carry out Immunocytochemistry analysis, cells were transferred to chamber slides, and cultured in a CO2 incubator (37° C., 5%) for 24 hours. After about 12 hours of serum starvation, the cultured cell lines were treated with 10 μg/ml of pachastrissamine for 24 hours. The cell lines treated with pachastrissamine were fixed with 100% methanol, and washed with PBS. Then, in order to make the cells permeable, the cell lines were reacted in a 0.5% Triton X-100 and washed with a PBS solution. Then, by using a solution including 10% FBS and 0.1% gelatin, blocking was carried out at room temperature for 1 hour, and FoxO3a antibody was reacted at 4° C. for 12 hours. After the reaction, the cells were washed with PBS, reacted with a secondary antibody of Alex488 (invitrogen) at room temperature, and washed with PBS again. Finally, for nuclear stain, the cells were reacted with DAPI and washed with PBS. The slide was washed with PBS, attached with glass coverslip, and analyzed through a microscope.
After the cells with or without over-expression of beta-catenin were treated with pachastrissamine, the distribution of intracellular FoxO3a protein was determined in the same manner as described in Example 4-3.

[5] = system: malignant melanoma cell line B16F10; assay: Mouse malignant melanoma (B16F10) lung metastasis model; assay type: in vivo; details: C57BL6 mouse, B16F10 1×10^6 via tail vein; inoculated once per 4 days (three times); lung on 14th day; FIG. 6
Procedure: In a C57BL6 mouse, pachastrissamine's effect on malignant melanoma metastasis inhibition was researched. A mouse (aged 6 weeks) was inoculated with a malignant melanoma cell line B16F10 (1×10^6) through a tail vein. After 24 hours from the inoculation, pachastrissamine was inoculated, and also, in a control group, PBS was inoculated in the same amount. Pachastrissamine was inoculated once per 4 days (three times), and on the 14th day from the inoculation of cells, the mouse was dissected to extract the lung. The extracted lung was immersed in 4% formalin solution for 16 hours or more, and washed for 16 hours or more. After the washing, the extracted lung was photographed, and other tissues were embedded in paraffin to make a block. Then, a tissue slice with a thickness of […] was prepared. The tissue slice was subjected to a deparaffin process for H&E (Hematoxylin & Eosin) staining, and then sequentially reacted with 100%, 90%, 80%, 70%, and 60% alcohol solutions to complete the hydration reaction. The completely hydrated slice was subjected to H&E staining, and then reacted with the alcohol solutions in reverse order of the hydration reaction to perform a dehydration reaction. When the dehydration reaction was completed, the slice was fixed on a slide and observed by a microscope.

[6] = 0, 0.9, 1.8, 3.7, 7.5, 10 μg/ml

Q: With `CCCCCCCCCCCCCC[C@@H]1OC[C@H](N)[C@@H]1O` [pachastrissamine] as the compound, how does the “cell viability (number of surviving cells) with increasing concentration” value (shortened to “cell viability … with increasing concentration”) (HaCaT cell line; [6]) read?
A: the number of surviving cells was reduced

Q: What about the “cytotoxicity compared with phytosphingosine” value (HaCaT cell line) of the same compound?
A: lower cytotoxicity than phytosphingosine

Q: What about the “cell viability … with increasing concentration” value [1, 6] of the same compound?
A: the number of surviving cells was reduced

Q: What about the “cytotoxicity compared with phytosphingosine” value [1] of the same compound?
A: lower cytotoxicity than phytosphingosine

Q: And the “cell viability … with increasing concentration” value [2, 6]?
A: the number of surviving cells was reduced

Q: And the “cytotoxicity compared with phytosphingosine” value [2]?
A: lower cytotoxicity than phytosphingosine

Q: What about the “number of cells compared to no treatment” value (B16F10 cell line; 10 μg/ml, FIGS. 2C, 2D) of the same compound?
A: the number of cells was decreased

Q: And the “number of cells with lithium chloride as well as pachastrissamine, compared to only pachastrissamine” value (B16F10 cell line; pachastrissamine 10 μg/ml + lithium chloride 300 nM (PA+Li))?
A: the number of cells was higher

Q: What about the “protein expression level of FoxO3a compared to control group” value (FoxO3a [3]; 5 and 10 μg/ml, 24 hours, FIG. 4A) of the same compound?
A: increased

Q: And the “extent of protein expression of FoxO3a, pachastrissamine and PD98059 together” value (FoxO3a [3]; pachastrissamine together with PD98059, versus each single material, FIG. 4E)?
A: it was not found that the extent of protein expression was increased

Q: And the “extent of protein expression of FoxO3a, pachastrissamine and U0126 together” value (FoxO3a [3]; pachastrissamine together with U0126, versus each single material, FIG. 4E)?
A: significantly increased compared to other samples treated with each single material

Q: What about the “level of protein expression of FoxO3a, single material” value (FoxO3a [3]; treated as in Example 3-2, compared to negative control, FIG. 4E) of the same compound?
A: the amount of FoxO3a protein was increased

Q: And the “movement of FoxO3a protein to a nucleus” value (FoxO3a [4]; 10 μg/ml, 24 hours, FIG. 4D)?
A: significantly increased

Q: And the “distribution of intracellular FoxO3a protein in cells with over-expression of beta-catenin” value (FoxO3a [4]; HaCaT with over-expression of beta-catenin (FoxO3a mostly in cytosol before treatment), FIG. 5D)?
A: moved into the nucleus again

Q: What about the “malignant melanoma metastasis to the lung compared to control group” value [5] of the same compound?
A: significantly inhibited
